Reference: patent US12428420B2, “Tricyclic heterocycles as FGFR inhibitors” (Incyte Corporation, priority 2021, dated 2025)

How the values were obtained:
[1] = test system: RT-112/84 cell line; assay: Luminescent Viability Assay (CellTiter-Glo); type: cell-based; settings: RT-112/84 cell line (bladder, FGFR3-TACC3), 3 days
Experimental: RT112 cells (cell lines and genetic profiles further detailed in Table 2) were purchased from ATCC (Manassas, VA) and maintained in RPMI, 10% FBS (Gibco/Life Technologies). To measure the effect of test compounds on the viability of cells, the cells were plated with RPMI 10% FBS (5×10^3 cells/well/in 50 μL) into black 96-well Greiner polystyrene in the presence or absence of 50 μL of a concentration range of test compounds. After 3 days, 100 μL of CellTiter-Glo Reagent (Promega) was added. Luminescence was read with a TopCount (PerkinElmer). IC50 determination was performed by fitting the curve of percent inhibition versus the log of the inhibitor concentration using the GraphPad Prism 5.0 software.

[2] = molecular target: wild-type un-phosphorylated FGFR3 protein (Homo sapiens, UniProt P22607); assay: FGFR Enzymatic Assay (FRET peptide phosphorylation); type: biochemical; settings: pre-incubated for 4 hours
Chain of wild-type un-phosphorylated FGFR3 protein (P22607 23-806): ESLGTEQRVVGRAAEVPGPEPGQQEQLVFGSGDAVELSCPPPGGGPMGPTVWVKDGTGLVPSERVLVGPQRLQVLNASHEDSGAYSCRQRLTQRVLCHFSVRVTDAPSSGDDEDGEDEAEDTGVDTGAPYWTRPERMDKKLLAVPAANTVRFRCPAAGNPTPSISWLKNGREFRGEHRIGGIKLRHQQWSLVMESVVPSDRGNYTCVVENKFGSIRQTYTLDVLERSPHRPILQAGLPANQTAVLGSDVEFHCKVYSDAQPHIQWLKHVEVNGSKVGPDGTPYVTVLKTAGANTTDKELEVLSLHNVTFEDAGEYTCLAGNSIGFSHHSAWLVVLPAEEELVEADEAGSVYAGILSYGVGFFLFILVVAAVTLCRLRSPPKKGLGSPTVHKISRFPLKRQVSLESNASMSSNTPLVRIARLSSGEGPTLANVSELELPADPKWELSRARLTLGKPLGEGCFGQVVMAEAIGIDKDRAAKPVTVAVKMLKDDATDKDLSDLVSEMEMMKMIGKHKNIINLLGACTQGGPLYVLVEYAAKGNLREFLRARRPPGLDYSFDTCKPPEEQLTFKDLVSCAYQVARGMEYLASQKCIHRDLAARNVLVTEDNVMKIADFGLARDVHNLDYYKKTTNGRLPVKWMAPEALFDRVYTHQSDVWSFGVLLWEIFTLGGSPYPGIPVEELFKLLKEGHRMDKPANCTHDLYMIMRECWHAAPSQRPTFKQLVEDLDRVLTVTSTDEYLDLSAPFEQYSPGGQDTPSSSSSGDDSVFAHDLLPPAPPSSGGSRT
Experimental: The inhibitor potency of the exemplified compounds was determined in an enzyme discontinuous assay that measures peptide phosphorylation using FRET measurements to detect product formation. Inhibitors were serially diluted in DMSO and a volume of 0.2 μL was transferred to the wells of a 384-well plate. A 5 μL/well volume of enzyme isoforms of FGFR (-1, -2, -3 wild-type and mutant isoforms, -4) including phosphorylated and un-phosphorylated proteins diluted in assay buffer (50 mM HEPES, 10 mM MgCl2, 1 mM EGTA, 0.01% Tween-20, 5 mM DTT, pH 7.5) was added to the plate and pre-incubated with inhibitor for 5 to 15 minutes at ambient temperature. Appropriate controls (enzyme blank and enzyme with no inhibitor) were included on the plate. The reaction was initiated by the addition of a 5 μL/well volume containing both biotinylated [sequence] peptide substrate (SEQ ID NO: 1) and ATP in assay buffer. The 10 μL/well reaction concentration of the peptide substrate was 500 nM whereas the ATP concentration was maintained near or below the ATP Km. The ATP Km values were pre-determined in a separate series of experiments. The reaction plate was incubated at 25° C. for 1 hr and the reactions were ended with the addition of 5 μL/well of quench solution (50 mM Tris, 150 mM NaCl, 0.5 mg/mL BSA, pH 7.8; 45 mM EDTA, 600 nM staurosporin, with Perkin Elmer Lance Reagents at 3.75 nM Eu-antibody PY20 and 180 nM APC-Streptavidin). The plate was allowed to equilibrate for ˜10 minutes at ambient temperature before scanning on a PheraStar plate reader (BMG Labtech) instrument.
Either GraphPad prism or XLfit was used to analyze the data. The IC50 values were derived by fitting the data to a four parameter logistic equation producing a sigmoidal dose-response curve with a variable Hill coefficient. Prism equation: Y=Bottom+(Top−Bottom)/(1+10^((Log IC50−X)*Hill slope)); XLfit equation: Y=(A+((B−A)/(1+((X/C)^D)))) where X is the logarithm of inhibitor concentration and Y is the response.

SMILES | IC50 [2] | IC50 ([1]; Homo sapiens, RT112/84, 72 h) | IC50 [1]
FC(F)c1c(-c2c(Cl)cccc2Cl)nc2c3cc(-c4cnn(C5CCOCC5)c4)cnc3ccn12 [Example 30, 2-(2,6-Dichlorophenyl)-3-(difluoromethyl)-9-(1-(tetrahydro-2H-pyran-4-yl)-1H-pyrazol-4-yl)imidazo[2,1-J][1,6]naphthyridine] | < 1 nM | < 10 nM | –
O=C(CO)N1CCN(c2ccc(-c3cnc4ccn5c(CO)c(-c6c(Cl)cccc6Cl)nc5c4c3)cc2)CC1 [Example 10, 1-(4-(4-(2-(2,6-Dichlorophenyl)-3-(hydroxymethyl)imidazo[2,1-f][1,6]naphthyridin-9-yl)phenyl)piperazin-1-yl)-2-hydroxyethan-1-one] | 1 to 5 nM | 10 to 50 nM | –
CC(O)Cn1cc(-c2cnc3ccn4c(CO)c(-c5c(Cl)cccc5Cl)nc4c3c2)cn1 (single isomer, unassigned) [18 peak 1] | 1 to 5 nM | 10 to 50 nM | –
CC(=O)N1CCC(n2cc(-c3cnc4ccn5c(CO)c(-c6c(Cl)cccc6Cl)nc5c4c3)cn2)CC1 [Example 20, 1-(4-(4-(2-(2,6-Dichlorophenyl)-3-(hydroxymethyl)imidazo[2,1-f][1,6]naphthyridin-9-yl)-1H-pyrazol-1-yl)piperidin-1-yl)ethan-1-one] | < 1 nM | < 10 nM | –
CC(O)Cn1cc(-c2cnc3ccn4c(CO)c(-c5c(Cl)cccc5Cl)nc4c3c2)cn1 (single isomer, unassigned) [18 peak 2] | 1 to 5 nM | – | 10 to 50 nM
CC(CC#N)n1cc(-c2cnc3ccn4c(CO)c(-c5c(Cl)cccc5Cl)nc4c3c2)cn1 (single isomer, unassigned) [23 peak 2] | < 1 nM | – | 10 to 50 nM
N#Cc1ccc(Cn2cc(-c3cnc4ccn5c(CO)c(-c6c(Cl)cccc6Cl)nc5c4c3)cn2)cn1 [Example 3, 5-((4-(2-(2,6-Dichlorophenyl)-3-(hydroxymethyl)imidazo[2,1-f][1,6]naphthyridin-9-yl)-1H-pyrazol-1-yl)methyl)picolinonitrile] | < 1 nM | < 10 nM | –
Nc1c(-c2c(Cl)cccc2Cl)nc2c3cc(-c4cnn(C5CCOCC5)c4)cnc3ccn12 [Example 35, 2-(2,6-Dichlorophenyl)-9-(1-(tetrahydro-2H-pyran-4-yl)-1H-pyrazol-4-yl)imidazo[2,1-f][1,6]naphthyridin-3-amine] | 1 to 5 nM | 10 to 50 nM | –
O=C(c1ccc(-c2cnc3ccn4c(CO)c(-c5c(Cl)cccc5Cl)nc4c3c2)cc1)N1C[C@@H]2C[C@H]1CO2 [Example 7, ((1S,4S)-2-Oxa-5-azabicyclo[2.2.1]heptan-5-yl)(4-(2-(2,6-dichlorophenyl)-3-(hydroxymethyl)imidazo[2,1-f][1,6]naphthyridin-9-yl)phenyl)methanone] | 1 to 5 nM | 10 to 50 nM | –

Continued, in another order:

IC50 [2] | SMILES | IC50 ([1]; Homo sapiens, RT112/84, 72 h) | IC50 [1]
1 to 5 nM | Cc1cccc(Cl)c1-c1nc2c3cc(-c4cnn(C5CCN(C)CC5)c4)cnc3ccn2c1CO [Example 11, (2-(2-Chloro-6-methylphenyl)-9-(1-(1-methylpiperidin-4-yl)-1H-pyrazol-4-yl)imidazo[2,1-J][1,6]naphthyridin-3-yl)methanol] | 10 to 50 nM | –
< 1 nM | CC(C#N)n1cc(-c2cnc3ccn4c(CO)c(-c5c(Cl)cccc5Cl)nc4c3c2)cn1 (single isomer, unassigned) [17 peak 1] | < 10 nM | –
< 1 nM | O=S1(=O)CCCC(n2cc(-c3cnc4ccn5c(CO)c(-c6c(Cl)cccc6Cl)nc5c4c3)cn2)C1 (single isomer, unassigned) [26 peak 2] | – | < 10 nM
1 to 5 nM | CN(C)C(=O)Cn1cc(-c2cnc3ccn4c(CO)c(-c5c(Cl)cccc5Cl)nc4c3c2)cn1 [Example 19, 2-(4-(2-(2,6-Dichlorophenyl)-3-(hydroxymethyl)imidazo[2,1-f][1,6]naphthyridin-9-yl)-1H-pyrazol-1-yl)-N,N-dimethylacetamide] | 10 to 50 nM | –
< 1 nM | N#Cc1cc(Cn2cc(-c3cnc4ccn5c(CO)c(-c6c(Cl)cccc6Cl)nc5c4c3)cn2)ccn1 [Example 4, 4-((4-(2-(2,6-Dichlorophenyl)-3-(hydroxymethyl)imidazo[2,1-f][1,6]naphthyridin-9-yl)-1H-pyrazol-1-yl)methyl)picolinonitrile] | < 10 nM | –
1 to 5 nM | C[C@H](CO)n1cc(-c2cnc3ccn4c(CO)c(-c5c(Cl)cccc5Cl)nc4c3c2)cn1 [Example 24, (R)-2-(4-(2-(2,6-Dichlorophenyl)-3-(hydroxymethyl)imidazo[2,1-f][1,6]naphthyridin-9-yl)-1H-pyrazol-1-yl)propan-1-ol] | 10 to 50 nM | –
< 1 nM | CS(=O)(=O)CCn1cc(-c2cnc3ccn4c(C(F)F)c(-c5c(Cl)cccc5Cl)nc4c3c2)cn1 [Example 28, 2-(2,6-Dichlorophenyl)-3-(difluoromethyl)-9-(1-(2-(methylsulfonyl)ethyl)-1H-pyrazol-4-yl)imidazo[2,1-f][1,6]naphthyridine] | < 10 nM | –
< 1 nM | CC(C#N)n1cc(-c2cnc3ccn4c(C(F)F)c(-c5c(Cl)cccc5Cl)nc4c3c2)cn1 (stereo not shown) [Example 32, 2-(4-(2-(2,6-Dichlorophenyl)-3-(difluoromethyl)imidazo[2,1-f][1,6]naphthyridin-9-yl)-1H-pyrazol-1-yl)propanenitrile] | < 10 nM | –
1 to 5 nM | OCc1c(-c2c(Cl)cccc2Cl)nc2c3cc(-c4cnn(Cc5ccnc(C(F)(F)F)c5)c4)cnc3ccn12 [Example 5, (2-(2,6-Dichlorophenyl)-9-(1-((2-(trifluoromethyl)pyridin-4-yl)methyl)-1H-pyrazol-4-yl)imidazo[2,1-f][1,6]naphthyridin-3-yl)methanol] | < 10 nM | –
< 1 nM | OCCn1cc(-c2cnc3ccn4c(C(F)F)c(-c5c(Cl)cccc5Cl)nc4c3c2)cn1 [Example 31, 2-(4-(2-(2,6-Dichlorophenyl)-3-(difluoromethyl)imidazo[2,1-f][1,6]naphthyridin-9-yl)-1H-pyrazol-1-yl)ethan-1-ol] | < 10 nM | –
< 1 nM | CC(C)(C(N)=O)n1cc(-c2cnc3ccn4c(C(F)F)c(-c5c(Cl)cccc5Cl)nc4c3c2)cn1 [Example 33, 2-(4-(2-(2,6-Dichlorophenyl)-3-(difluoromethyl)imidazo[2,1-f][1,6]naphthyridin-9-yl)-1H-pyrazol-1-yl)-2-methylpropanamide] | < 10 nM | –
< 1 nM | CC(C#N)n1cc(-c2cnc3ccn4c(CO)c(-c5c(Cl)cccc5Cl)nc4c3c2)cn1 (single isomer, unassigned) [17 peak 2] | – | < 10 nM
< 1 nM | N#CCn1cc(-c2cnc3ccn4c(C(F)F)c(-c5c(Cl)cccc5Cl)nc4c3c2)cn1 [Example 29, 2-(4-(2-(2,6-Dichlorophenyl)-3-(difluoromethyl)imidazo[2,1-f][1,6]naphthyridin-9-yl)-1H-pyrazol-1-yl)acetonitrile] | < 10 nM | –
1 to 5 nM | Cc1c(-c2c(Cl)cccc2Cl)nc2c3cc(-c4cnn(C5CN(C(=O)c6nnn(C)n6)C5)c4)cnc3ccn12 [Example 14, (3-(4-(2-(2,6-Dichlorophenyl)-3-methylimidazo[2,1-J][1,6]naphthyridin-9-yl)-1H-pyrazol-1-yl)azetidin-1-yl)(2-methyl-2H-tetrazol-5-yl)methanone] | 10 to 50 nM | –
